Experimental data reported in patent US9783575B2, “Methyl degron peptide and methods of controlling protein lifespan” (Seoul National University (SNU) R&D Foundation, priority 2012, dated 2017).

Key:
MCF7 breast cancer cells = experiment: Cell transformation assay (anchorage-independent growth in soft agar); assay type: cell-based; design: dose or concentration left out as unconfirmed; settings: 3 weeks (FIG. 60)
Method: Representative images are shown for each group. Immunoblot analysis was performed to detect each protein level. […]

EZH2 [1] = experiment: Immunoblot of EZH2 and RORα protein levels with DZNep; assay type: cell-based; settings: MCF7 cells, DZNep 1 μM, 24 hr, immunoblot (FIG. 19)
Description: (§1) In order to determine whether the ubiquitin-proteasome pathway is responsible for RORα degradation and to further examine whether the introduction of EZH2 augments RORα ubiquitination by allowing increased RORα methylation, we performed an RORα ubiquitination assay with EZH2 in the presence of a 26S proteasome inhibitor, MG132. […] To further examine whether K38 methylation directly affects RORα ubiquitination, we performed a ubiquitination assay for RORα WT and RORα K38A in the presence of MG132. Indeed, RORα K38A mutation led to a marked reduction in RORα ubiquitination compared to RORα WT (FIG. 18). Next, we examined whether an EZH2 small molecule inhibitor, exemplified by DZNep, rescues the EZH2-mediated degradation of RORα.

RORα ubiquitination = RORα ubiquitination assay with DZNep; assay type: cell-based; settings: HEK-293T cells, DZNep 1 μM, 24 hr (FIG. 20)
Method: Cells were transfected with combinations of plasmids including HisMax-ubiquitin. After incubation for 48 hrs, cells were treated with MG132, lysed in buffer A (6 M guanidinium-HCl, 0.1 M Na2HPO4/NaH2PO4, 0.01 M Tris-Cl [pH 8.0], 5 mM imidazole, and 10 mM β-mercaptoethanol), and incubated with Ni^2+-NTA beads (Qiagen) for 4 hrs at room temperature. The beads were sequentially washed with buffer A, buffer B (8 M urea, 0.1 M Na2PO4/NaH2PO4, 0.01 M Tris-Cl [pH 8.0], and 10 mM β-mercaptoethanol), and buffer C (8 M urea, 0.1 M Na2PO4/NaH2PO4, 0.01 M Tris-Cl [pH 6.3], and 10 mM β-mercaptoethanol). Bound proteins were eluted with buffer D (200 mM imidazole, 0.15 M Tris-Cl [pH 6.7], 30% glycerol, 0.72 M β-mercaptoethanol, and 5% SDS), and subject to immunoblot analysis.
as §1, with “Next, we examined whether an EZH2 small molecule inhibitor, exemplified by DZNep, rescues the EZH2-mediated degradation of RORα.” left out

EZH2 [2] = biological target: T1, EZH2 (Homo sapiens, UniProt Q15910); experiment: In vitro methyltransferase (HMTase) assay with mass spectrometry; assay type: biochemical; settings: 100 μM synthetic peptide, GST-EZH2, LC-MS (FIG. 4)
T1 construct: GST
T1 sequence (Q15910 whole entry, species assumed): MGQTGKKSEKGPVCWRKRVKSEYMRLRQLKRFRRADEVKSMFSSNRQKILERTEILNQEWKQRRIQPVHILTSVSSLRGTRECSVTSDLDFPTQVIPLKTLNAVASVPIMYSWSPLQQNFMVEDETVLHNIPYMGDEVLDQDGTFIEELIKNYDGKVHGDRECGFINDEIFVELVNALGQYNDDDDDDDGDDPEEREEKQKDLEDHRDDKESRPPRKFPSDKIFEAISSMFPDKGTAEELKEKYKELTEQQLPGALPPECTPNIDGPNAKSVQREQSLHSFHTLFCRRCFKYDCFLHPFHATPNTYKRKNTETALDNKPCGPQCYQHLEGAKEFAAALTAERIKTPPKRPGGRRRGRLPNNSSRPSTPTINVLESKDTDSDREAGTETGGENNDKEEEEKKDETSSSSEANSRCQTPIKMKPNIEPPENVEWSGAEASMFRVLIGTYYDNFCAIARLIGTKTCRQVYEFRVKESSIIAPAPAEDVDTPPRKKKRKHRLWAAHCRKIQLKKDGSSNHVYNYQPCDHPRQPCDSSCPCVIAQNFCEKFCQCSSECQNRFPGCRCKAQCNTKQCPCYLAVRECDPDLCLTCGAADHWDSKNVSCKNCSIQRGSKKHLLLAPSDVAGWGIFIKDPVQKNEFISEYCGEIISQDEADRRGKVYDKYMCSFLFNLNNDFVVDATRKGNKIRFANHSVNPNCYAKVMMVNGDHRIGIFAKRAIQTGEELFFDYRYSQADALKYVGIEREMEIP
Method: Small quantities (100 μM) of synthetic peptides (RORα WT) were used as substrates in the HMTase assay with EZH2 enzyme; the reaction was stopped by 10% TCA precipitation for 10 min at 4° C. After removing the precipitates by centrifugation, the supernatants were retrieved and methylated peptides in the supernatants were analyzed by LC-MS. The eluted peptides were separated on a Luna column (C18 PepMap 100, 150×1 mm 5 micron) with a linear gradient (A: 100% H2O, 0.1% formic acid, B: 100% ACN, 0.1% formic acid) at a flow rate of […]. Typically, 2 μL of sample was injected. Mass spectrometry was performed on a linear ion trap mass spectrometer (LCQ DECA XP, Thermo Finningan) coupled to a nano-LC system (NANOSPACE SI-2, Shiseido). The MS method consisted of a cycle combining one full MS scan (Mass range: 160-2000 m/z).
The association of EZH2 with RORα at endogenous levels was confirmed by co-immunoprecipitation analysis (FIG. 3). To assess whether RORα is methylated by EZH2 and to determine the methylation status of RORα, peptides bearing amino acids 31-40 of RORα (LNQESARKSE) were in vitro methylated by EZH2 and analyzed by mass spectrometry. […]

Row | Compound | cellular transformation (colony formation in soft agar) (MCF7 breast cancer cells) | EZH2 protein levels (EZH2 [1]) | RORα protein levels (EZH2 [1]) | RORα ubiquitination levels (RORα ubiquitination) | methylation of peptide by EZH2 (EZH2 [2])
1 | Nc1nccc2c1ncn2C1C=C(CO)C(O)C1O (centres unmarked) [DZNep] | inhibitory effect on cellular transformation | reduction of EZH2 protein levels | increases in RORα protein levels | decreased | 
2 | LNQESARKSE [RORα wild-type (WT) peptide, peptide bearing amino acids 31-40 of RORα] |  |  |  |  | addition of one methyl group to the K38 site
